Measured values from the supplement of paper PMC10627819.

Experiments:
Assay in all cases: Bliss interaction score (quartile over a dose matrix) (fitness difference); higher = more antagonism (negative = synergy)
S. aureus DSM 20231 = tested on: S. aureus DSM 20231
Summary of the method: (§1)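 The Bliss score is observed fitness minus expected fitness, where the expected value is the product of single-drug fitness values inferred from combination data. Fitness is OD595 at entry into stationary phase normalised to the plate's robust no-drug mean and capped at 1. Scores are reported as quartiles spanning technical, biological and donor/recipient replicates.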

B. subtilis 168 = tested on: B. subtilis 168
Summary of the method: as §1

S. aureus Newman = tested on: S. aureus Newman
Summary of the method: as §1

S. pneumoniae D39V = tested on: S. pneumoniae D39V
Summary of the method: as §1
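Further: first quartile when negative (synergy) and third quartile when positive (antagonism).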

Row | SMILES | Bliss interaction score (S. aureus DSM 20231; main component drawn) | Bliss interaction score (B. subtilis 168; main component drawn) | Bliss interaction score (S. aureus Newman; main component drawn) | Bliss interaction score (S. pneumoniae D39V; main component drawn) | Bliss interaction score (S. aureus DSM 20231) | Bliss interaction score (B. subtilis 168) | Bliss interaction score (S. aureus Newman) | Bliss interaction score (S. pneumoniae D39V)
1 | CC[C@H](C)[C@H](N)C1=N[C@H](C(=O)N[C@@H](CC(C)C)C(=O)N[C@H](CCC(=O)O)C(=O)N[C@H](C(=O)N[C@H]2CCCCNC(=O)[C@H](CC(N)=O)NC(=O)[C@@H](CC(=O)O)NC(=O)[C@H](Cc3cnc[nH]3)NC(=O)[C@@H](Cc3ccccc3)NC(=O)[C@H]([C@@H](C)CC)NC(=O)[C@@H](CCCN)NC2=O)[C@@H](C)CC)CS1 [Bacitracin] + CN(C)[C@@H]1C(O)=C(C(N)=O)C(=O)[C@@]2(O)C(O)=C3C(=O)c4c(O)ccc(Cl)c4[C@@](C)(O)[C@H]3C[C@@H]12 [Clortetracycline] | 0.0294 | -0.12 | -0.0827 | 0.135 | – | – | – | –
2 | CC[C@H](C)[C@H](N)C1=N[C@H](C(=O)N[C@@H](CC(C)C)C(=O)N[C@H](CCC(=O)O)C(=O)N[C@H](C(=O)N[C@H]2CCCCNC(=O)[C@H](CC(N)=O)NC(=O)[C@@H](CC(=O)O)NC(=O)[C@H](Cc3cnc[nH]3)NC(=O)[C@@H](Cc3ccccc3)NC(=O)[C@H]([C@@H](C)CC)NC(=O)[C@@H](CCCN)NC2=O)[C@@H](C)CC)CS1 [Bacitracin] + CN[C@H](CC(C)C)C(=O)N[C@H]1C(=O)N[C@@H](CC(N)=O)C(=O)N[C@H]2C(=O)N[C@H]3C(=O)N[C@H](C(=O)N[C@H](C(=O)O)c4cc(O)cc(O)c4-c4cc3ccc4O)[C@H](O[C@H]3C[C@](C)(N)[C@@H](O)[C@H](C)O3)c3ccc(c(Cl)c3)Oc3cc2cc(c3O[C@@H]2O[C@H](CO)[C@@H](O)[C@H](O)[C@H]2O[C@H]2C[C@](C)(NCc3ccc(-c4ccc(Cl)cc4)cc3)[C@@H](O)[C@H](C)O2)Oc2ccc(cc2Cl)[C@H]1O [Oritavancin] | -0.0199 | -0.0398 | 0.084 | 0.0372 | – | – | – | –
3 | CC[C@H](C)[C@H](N)C1=N[C@H](C(=O)N[C@@H](CC(C)C)C(=O)N[C@H](CCC(=O)O)C(=O)N[C@H](C(=O)N[C@H]2CCCCNC(=O)[C@H](CC(N)=O)NC(=O)[C@@H](CC(=O)O)NC(=O)[C@H](Cc3cnc[nH]3)NC(=O)[C@@H](Cc3ccccc3)NC(=O)[C@H]([C@@H](C)CC)NC(=O)[C@@H](CCCN)NC2=O)[C@@H](C)CC)CS1 [Bacitracin] + CO[C@@]12[C@H](COC(N)=O)C3=C(C(=O)C(C)=C(N)C3=O)N1C[C@@H]1N[C@@H]12 [MitomycinC] | -0.0743 | -0.0673 | -0.0961 | -0.0853 | – | – | – | –
4 | CC[C@H](C)[C@H](N)C1=N[C@H](C(=O)N[C@@H](CC(C)C)C(=O)N[C@H](CCC(=O)O)C(=O)N[C@H](C(=O)N[C@H]2CCCCNC(=O)[C@H](CC(N)=O)NC(=O)[C@@H](CC(=O)O)NC(=O)[C@H](Cc3cnc[nH]3)NC(=O)[C@@H](Cc3ccccc3)NC(=O)[C@H]([C@@H](C)CC)NC(=O)[C@@H](CCCN)NC2=O)[C@@H](C)CC)CS1 [Bacitracin] + CO[C@H]1/C=C/O[C@@]2(C)Oc3c(C)c(O)c4c(O)c(c(/C=N/N5CCN(C)CC5)c(O)c4c3C2=O)NC(=O)/C(C)=C\C=C\[C@H](C)[C@H](O)[C@@H](C)[C@@H](O)[C@@H](C)[C@H](OC(C)=O)[C@@H]1C [Rifampicin] | 0.0174 | -0.0806 | -0.0236 | 0.104 | – | – | – | –
5 | CC[C@H](C)[C@H](N)C1=N[C@H](C(=O)N[C@@H](CC(C)C)C(=O)N[C@H](CCC(=O)O)C(=O)N[C@H](C(=O)N[C@H]2CCCCNC(=O)[C@H](CC(N)=O)NC(=O)[C@@H](CC(=O)O)NC(=O)[C@H](Cc3cnc[nH]3)NC(=O)[C@@H](Cc3ccccc3)NC(=O)[C@H]([C@@H](C)CC)NC(=O)[C@@H](CCCN)NC2=O)[C@@H](C)CC)CS1 [Bacitracin] + C[C@@H](O)[C@H]1C(=O)N2C(C(=O)O)=C(SCCNC=N)C[C@H]12 [Imipenem] | 0.0207 | -0.359 | -0.0113 | -0.0576 | – | – | – | –
6 | CC[C@H](C)[C@H](N)C1=N[C@H](C(=O)N[C@@H](CC(C)C)C(=O)N[C@H](CCC(=O)O)C(=O)N[C@H](C(=O)N[C@H]2CCCCNC(=O)[C@H](CC(N)=O)NC(=O)[C@@H](CC(=O)O)NC(=O)[C@H](Cc3cnc[nH]3)NC(=O)[C@@H](Cc3ccccc3)NC(=O)[C@H]([C@@H](C)CC)NC(=O)[C@@H](CCCN)NC2=O)[C@@H](C)CC)CS1 [Bacitracin] + Clc1ccc(COC(Cn2ccnc2)c2ccc(Cl)cc2Cl)c(Cl)c1 [Miconazole] | -0.0238 | -0.0878 | -0.0691 | 0.113 | – | – | – | –
7 | CC[C@H](C)[C@H](N)C1=N[C@H](C(=O)N[C@@H](CC(C)C)C(=O)N[C@H](CCC(=O)O)C(=O)N[C@H](C(=O)N[C@H]2CCCCNC(=O)[C@H](CC(N)=O)NC(=O)[C@@H](CC(=O)O)NC(=O)[C@H](Cc3cnc[nH]3)NC(=O)[C@@H](Cc3ccccc3)NC(=O)[C@H]([C@@H](C)CC)NC(=O)[C@@H](CCCN)NC2=O)[C@@H](C)CC)CS1 [Bacitracin] + N[C@@H]1CONC1=O [CycloserineD] | -0.0841 | 0.0719 | 0.0872 | 0.118 | – | – | – | –
8 | CC[C@H](C)[C@H](N)C1=N[C@H](C(=O)N[C@@H](CC(C)C)C(=O)N[C@H](CCC(=O)O)C(=O)N[C@H](C(=O)N[C@H]2CCCCNC(=O)[C@H](CC(N)=O)NC(=O)[C@@H](CC(=O)O)NC(=O)[C@H](Cc3cnc[nH]3)NC(=O)[C@@H](Cc3ccccc3)NC(=O)[C@H]([C@@H](C)CC)NC(=O)[C@@H](CCCN)NC2=O)[C@@H](C)CC)CS1 [Bacitracin] + O=C1CN(/N=C/c2ccc([N+](=O)[O-])o2)C(=O)N1 [Nitrofurantoin] | -0.0336 | -0.192 | 0.0654 | -0.0709 | – | – | – | –
9 | CC[C@H](C)[C@H](N)C1=N[C@H](C(=O)N[C@@H](CC(C)C)C(=O)N[C@H](CCC(=O)O)C(=O)N[C@H](C(=O)N[C@H]2CCCCNC(=O)[C@H](CC(N)=O)NC(=O)[C@@H](CC(=O)O)NC(=O)[C@H](Cc3cnc[nH]3)NC(=O)[C@@H](Cc3ccccc3)NC(=O)[C@H]([C@@H](C)CC)NC(=O)[C@@H](CCCN)NC2=O)[C@@H](C)CC)CS1 [Bacitracin] + O=C(O)[C@H]1/C(=C/CO)O[C@@H]2CC(=O)N21 [Clavulanic] | -0.0375 | 0.107 | 0.241 | -0.0867 | – | – | – | –
10 | CC[C@H](C)[C@H](N)C1=N[C@H](C(=O)N[C@@H](CC(C)C)C(=O)N[C@H](CCC(=O)O)C(=O)N[C@H](C(=O)N[C@H]2CCCCNC(=O)[C@H](CC(N)=O)NC(=O)[C@@H](CC(=O)O)NC(=O)[C@H](Cc3cnc[nH]3)NC(=O)[C@@H](Cc3ccccc3)NC(=O)[C@H]([C@@H](C)CC)NC(=O)[C@@H](CCCN)NC2=O)[C@@H](C)CC)CS1 [Bacitracin] + Oc1cc(Cl)ccc1Oc1ccc(Cl)cc1Cl [Triclosan] | 0.0303 | -0.136 | -0.0148 | 0.056 | – | – | – | –
11 | CC[C@H]1OC(=O)[C@H](C)[C@@H](O[C@H]2C[C@@](C)(OC)[C@@H](O)[C@H](C)O2)[C@H](C)[C@@H](O[C@@H]2O[C@H](C)C[C@H](N(C)C)[C@H]2O)[C@](C)(O)C[C@@H](C)C(=O)[C@H](C)[C@@H](O)[C@]1(C)O [Erythromycin] + C/C(=C\C(=O)OCCCCCCCCC(=O)O)C[C@@H]1OC[C@H](C[C@@H]2O[C@H]2[C@@H](C)[C@H](C)O)[C@@H](O)[C@H]1O [Pseudomonic acid] | – | – | – | – | -0.0124 | 0.0626 | -0.0171 | 0.0664
12 | CC[C@H]1OC(=O)[C@H](C)[C@@H](O[C@H]2C[C@@](C)(OC)[C@@H](O)[C@H](C)O2)[C@H](C)[C@@H](O[C@@H]2O[C@H](C)C[C@H](N(C)C)[C@H]2O)[C@](C)(O)C[C@@H](C)C(=O)[C@H](C)[C@@H](O)[C@]1(C)O [Erythromycin] + CC1(C)S[C@@H]2[C@H](NC(=O)Cc3ccccc3)C(=O)N2[C@H]1C(=O)O [PenicillinG] | – | – | – | – | 0.0265 | 0.0463 | -0.0654 | -0.0381
13 | CC[C@H]1OC(=O)[C@H](C)[C@@H](O[C@H]2C[C@@](C)(OC)[C@@H](O)[C@H](C)O2)[C@H](C)[C@@H](O[C@@H]2O[C@H](C)C[C@H](N(C)C)[C@H]2O)[C@](C)(O)C[C@@H](C)C(=O)[C@H](C)[C@@H](O)[C@]1(C)O [Erythromycin] + CC1=C\[C@@H](O)CC(=O)Cc2nc(co2)C(=O)N2CCC=C2C(=O)O[C@H](C(C)C)[C@H](C)/C=C/C(=O)NC\C=C\1 [Virginiamycin M1] | – | – | – | – | 0.0769 | -0.0578 | 0.066 | 0.0687
14 | CC[C@H]1OC(=O)[C@H](C)[C@@H](O[C@H]2C[C@@](C)(OC)[C@@H](O)[C@H](C)O2)[C@H](C)[C@@H](O[C@@H]2O[C@H](C)C[C@H](N(C)C)[C@H]2O)[C@](C)(O)C[C@@H](C)C(=O)[C@H](C)[C@@H](O)[C@]1(C)O [Erythromycin] + CC(=O)NC[C@H]1CN(c2ccc(N3CCOCC3)c(F)c2)C(=O)O1 [Linezolid] | – | – | – | – | -0.018 | -0.0534 | -0.0521 | 0.068
15 | CC[C@H]1OC(=O)[C@H](C)[C@@H](O[C@H]2C[C@@](C)(OC)[C@@H](O)[C@H](C)O2)[C@H](C)[C@@H](O[C@@H]2O[C@H](C)C[C@H](N(C)C)[C@H]2O)[C@](C)(O)C[C@@H](C)C(=O)[C@H](C)[C@@H](O)[C@]1(C)O [Erythromycin] + CC(=O)O[C@H]1C[C@@]2(C)[C@@H](C[C@@H](O)[C@H]3[C@@]4(C)CC[C@@H](O)[C@@H](C)[C@@H]4CC[C@@]32C)/C1=C(\CCC=C(C)C)C(=O)O [Fusidic acid] | – | – | – | – | 0.0374 | -0.057 | -0.0241 | -0.1
16 | CC[C@H]1OC(=O)[C@H](C)[C@@H](O[C@H]2C[C@@](C)(OC)[C@@H](O)[C@H](C)O2)[C@H](C)[C@@H](O[C@@H]2O[C@H](C)C[C@H](N(C)C)[C@H]2O)[C@](C)(O)C[C@@H](C)C(=O)[C@H](C)[C@@H](O)[C@]1(C)O [Erythromycin] + CC(C1CCC(C(O1)OC2C(CC(C(C2O)OC3C(C(C(CO3)(C)O)NC)O)N)N)N)NC [Gentamicin] | 0.0847 | 0.118 | 0.0427 | 0.0656 | – | – | – | –
17 | CC[C@H]1OC(=O)[C@H](C)[C@@H](O[C@H]2C[C@@](C)(OC)[C@@H](O)[C@H](C)O2)[C@H](C)[C@@H](O[C@@H]2O[C@H](C)C[C@H](N(C)C)[C@H]2O)[C@](C)(O)C[C@@H](C)C(=O)[C@H](C)[C@@H](O)[C@]1(C)O [Erythromycin] + CCC(C)C1C(=O)NC(=C)C(=O)NC(C(=O)NC(CSCC(C(=O)N1)NC(=O)/C(=C/C)/NC(=O)C(C(C)CC)N)C(=O)NC2C(SCC(NC(=O)CNC(=O)C3CCCN3C2=O)C(=O)NC(CCCCN)C(=O)NC4C(SCC(NC(=O)CNC(=O)C(NC(=O)C(NC(=O)C(NC(=O)CNC4=O)C)CC(C)C)CCSC)C(=O)NC(CC(=O)N)C(=O)NC(CCSC)C(=O)NC(CCCCN)C(=O)NC5C(SCC6C(=O)NC(C(=O)NC(CSC(C(C(=O)N6)NC(=O)C(NC5=O)C)C)C(=O)NC(CO)C(=O)NC(C(C)CC)C(=O)NC(CC7=CN=CN7)C(=O)NC(C(C)C)C(=O)NC(=C)C(=O)NC(CCCCN)C(=O)O)CC8=CN=CN8)C)C)C)CC(C)C [Nisin] | -0.029 | 0.0295 | -0.028 | -0.0423 | – | – | – | –
